BindingDB's records for doi:10.7270/Q2930WC4 (n/a, 1995)

Molecular target: Alpha-2 adrenergic receptor (Rattus norvegicus)
Test: Compound was tested for its binding affinity against Alpha-2 adrenergic receptor

`CCCN(CCCCCCN1CCC[C@@H]1Cc1ccc(O)c(O)c1)CCc1ccc(O)c(O)c1` gave a Ki of 302 nM.
